Literature values as cited in patent US20060136023A1 (priority 2004, published 2006).

How the values were obtained:
[1] = tested on: opiate receptor
[2] = tested on: shivering threshold; details: in vivo
[3] = tested on: clots; details: clots treated with plasminogen (2 mg) and SK (100 IU) in 15 ml PBS; clot temperature raised from 24° C. to 37° C.
[4] = target: T1, Plasminogen (Homo sapiens, UniProt P00747)
[5] = tested on: clots; details: tPA 0.3, 1.0 and 3.0 μg/ml; incubated from 24° C. to 40° C.
[6] = target: T1, Plasminogen; details: clots treated with UK at 4° C.; heating to 28° C.

T1 sequence (P00747 20-810 limits assumed, species assumed): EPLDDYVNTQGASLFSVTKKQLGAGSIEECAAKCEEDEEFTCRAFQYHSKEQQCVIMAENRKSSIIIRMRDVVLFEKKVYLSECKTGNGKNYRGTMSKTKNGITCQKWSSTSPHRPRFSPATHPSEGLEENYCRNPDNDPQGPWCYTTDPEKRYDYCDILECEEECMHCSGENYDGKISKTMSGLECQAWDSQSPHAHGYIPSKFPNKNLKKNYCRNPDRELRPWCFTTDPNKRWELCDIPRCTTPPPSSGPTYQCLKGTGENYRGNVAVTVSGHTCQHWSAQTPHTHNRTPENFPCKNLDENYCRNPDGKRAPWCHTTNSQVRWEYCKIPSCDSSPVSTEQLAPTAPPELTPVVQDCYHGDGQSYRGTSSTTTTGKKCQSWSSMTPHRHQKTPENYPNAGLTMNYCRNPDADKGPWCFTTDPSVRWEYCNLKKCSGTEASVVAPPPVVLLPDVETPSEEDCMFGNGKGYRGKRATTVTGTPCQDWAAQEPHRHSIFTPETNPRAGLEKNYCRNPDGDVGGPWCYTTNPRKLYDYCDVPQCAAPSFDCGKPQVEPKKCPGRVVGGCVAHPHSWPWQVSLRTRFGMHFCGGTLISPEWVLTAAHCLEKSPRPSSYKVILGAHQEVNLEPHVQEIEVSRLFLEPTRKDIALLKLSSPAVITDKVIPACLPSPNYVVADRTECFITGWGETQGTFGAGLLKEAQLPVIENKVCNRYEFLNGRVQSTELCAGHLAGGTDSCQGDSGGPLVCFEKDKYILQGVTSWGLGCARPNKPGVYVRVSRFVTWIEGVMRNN

Compound: CCC(=O)OC1(c2ccccc2)CCN(C)CC1C (racemic) [alpha prodine, Alpha prodine]
- affinity for the opiate receptor, one enantiomer versus the other [1]: (+) isomer has much greater affinity

Compound: CN1CCOC(c2ccccc2)c2ccccc2C1 (racemic) [nefopam]
- antishivering activity [2]: prevent post-operative shivering

Compound: CCOC(=O)C1(c2ccccc2)CCN(C)CC1 [Meperidine]
- decrease of shivering threshold relative to vasoconstriction threshold [2]: twice as much
- effect on the gain and maximum intensity of shivering [2]: does not have much effect

Compound: CCC(=O)O[C@@]1(c2ccccc2)CCN(C)C[C@@H]1C [beta prodine]
- affinity for the opiate receptor, one enantiomer versus the other [1]: (+) isomer has much greater affinity

Compound: CN1CC[C@]23c4c5ccc(O)c4O[C@H]2[C@@H](O)C=C[C@H]3[C@H]1C5 [morphine]
- antishivering activity [2]: less or no antishivering activity

Compound: Oc1ccc2c3c1O[C@H]1[C@@H](O)CC[C@@]4(O)[C@@H](C2)N(CC2CCC2)CC[C@]314 [nalbuphine]
- antishivering activity [2]: less or no antishivering activity

Compound: CC(C)=CCN1CCC2(C)c3cc(O)ccc3CC1C2C (stereo not shown) [pentazocine]
- antishivering activity [2]: less or no antishivering activity

Compound: streptokinase [SK]
- fibrinolytic activity [3]: heating enhanced the fibrinolytic activity

Compound: tissue plasminogen activator [tPA]
- fibrinolytic activity ([4]; 2.5 μg/ml tPA, cooling from normal body temperature to a hypothermic temperature): increased fibrinolytic activity
- Plasminogen activation ([4]; clots treated with 2.5 μg/ml tPA, incubated at 37, 25, 10, 0 and −8° C.): relatively high at low temperatures
- amount of clot lysis [5]: correlated with temperature at all concentrations

Compound: urokinase [UK]
- conversion of plasminogen to plasmin (fibrinolytic activity) [6]: complete conversion of all plasminogen to plasmin
